Results reported in patent US9220794B2, “Two-photon fluorescent probes for imaging of total sulfide in live cell and tissue, and quantitative estimation of total sulfide concentration using the same” (Korea University Research and Business Foundation, priority 2013, dated 2015).

What was measured:
[1] = Measurement of two-photon cross section (fs fluorescence technique, rhodamine 6G reference); assay type: physicochemical; details: for Φδmax, two-photon action cross section: uncertainty ±15%
Procedure: Two-photon cross section (δ) was determined using a femtosecond (fs) fluorescence measurement technique.
The compound of [Chemical Formula 2-5] and the compound of [Chemical Formula 2-6] were dissolved in 20 mM HEPES buffer (pH 7.2) and 3.0×10^−6 M HEPES/EtOH (1/1) and then two-photon induced fluorescence intensity was measured at 740-940 nm using rhodamine 6G as a reference, whose two-photon property has been well characterized. The two-photon fluorescence intensities of the reference and the compound of [Chemical Formula 2-6] and the compound of [Chemical Formula 2-5] were determined.
The two-photon cross section was calculated from δ=δr(Ssφrφrcr)/(Srφsφscs). In the equation, the subscripts s and r stand for the sample, i.e., the compound of [Chemical Formula 2-6] and the compound of […], respectively. S denotes the intensity of the signal collected using a CCD detector, φ is the fluorescence quantum yield (measured using coumarin 307 and rhodamine B according to the literature), […] fluorescence collection efficiency, and c is the number density of molecules in solution. δr is the two-photon cross section of the reference molecule.

[2] = One-photon absorption and emission spectra, fluorescence quantum yield; assay type: physicochemical; details: for 10^−4 ε: value is ε×10^−4
Procedure: The solvatochromic effect observed for the compound of [Chemical Formula 2-6] may have resulted from the […] dipole moment.
Absorption spectra were recorded on the Hewlett-Packard 8453 diode array spectrophotometer and fluorescence spectra were obtained with the Amico-Bowman series 2 luminescence spectrometer with a 1-cm standard quartz cell.

HeLa cells = assay: Kinetic estimation of total sulfide concentration in HeLa cells (TPEF); assay type: cell-based, human
Procedure: To quantitatively estimate the total sulfide concentration in living cells, the TPEF intensity of HeLa cells labeled with the compound of [Chemical Formula 2-6] was monitored in the absence and presence of Na2S, cysteine (Cys) and glutathione (GSH) with 20-30 minute intervals.
Since H2S and HS^− are in equilibrium and [H2S]/[HS^−]=[H^+]/Ka=0.794 in HEPES/EtOH (1/1, pH=7.2), it seems appropriate to present the total sulfide concentration ([H2S]+[HS^−]).
Kinetic experiments in HeLa cells were conducted in the same manner except that TPEF intensities from HeLa cells labeled with the compound of [Chemical Formula 2-6] upon excitation at 750 nm were monitored with 20-30 minute intervals.
The average TPEF intensities at given time and the SB2/SA1 ratio was obtained by dividing the TPEF intensity of [Chemical Formula 2-6] at 390-450 nm by that of [Chemical Formula 2-5] at 525-650 nm in the HeLa cells (FIG. 1b) were used in the kobs calculation.
The kobs value was measured at 10 regions of interest (ROIs) from three independent cell lines.
To evaluate the effect of Na2S, cysteine and GSH, HeLa cells were incubated with the compound of [Chemical Formula 2-6] (2 μM) and then treated with Na2S (100, 300 μM), cysteine (500 μM) and GSH (500 μM) for 30 minutes. The cells were then washed 3 times with FBS-free DMEM and subjected to kinetic measurement.

rat colon tissue = assay: Kinetic measurement of total sulfide in rat colon tissue slices; assay type: in vivo; details: before 5-FU treatment; for total sulfide concentration in colon tissue: probe 2-6; for kobs in colon tissue: tissue labeled with 2-6
Procedure: To quantitatively estimate the total sulfide concentration, kinetic experiments were performed in the colon tissue labeled with the compound of [Chemical Formula 2-6].
Male Sprague-Dawley rats (235-265 g) were divided into two groups (5-FU and control groups). In the 5-FU group, 150 mg/kg of 5-FU (SoloPak Laboratories, Franklin Park, Ill.) were intraperitoneally injected into the rats. The rats of the control group were injected with saline. Each group consisted of 4 rats.
8 hours after the intraperitoneal injection, all the rats were sacrificed. Laparotomy was performed after anesthetizing the rats.
Kinetic experiments in rat colon tissue were performed using four colon slices obtained from four rats. Two sets of experiments were performed for each slice. In each set, TPEF intensities from 8 ROI's/section were collected at depths of 90-150 μm (mucosa) and 151-170 μm (submucosa) in the colon tissue labeled with the compound of [Chemical Formula 2-6] and averaged.
The rate constant (kobs) was measured from 7 and 3 sections of the mucosa and submucosa tissues, respectively, in order to obtain 112 kobs and 48 kobs values, respectively. The rate constant (kobs) was expressed as mean±SD and p was set to be smaller than 0.05.

[3] = pH sensitivity of the fluorescence; assay type: physicochemical; details: biologically relevant pH range
[4] = HEPES buffer (20 mM HEPES, 100 mM KCl, pH 7.4)

COCCOCCC1(CCOCCOC)c2cc(NC(=O)OCc3ccc(N=[N+]=[N-])cc3)ccc2-c2ccc(-c3nc4ccccc4s3)cc21 [Chemical Formula 2-6]
λ^(2)max, two-photon maximum ([1]; HEPES): 740 nm
Φδmax, two-photon action cross section ([1]; HEPES buffer, 2-6 at 740 nm, 2-5 at 750 nm): 0.67 GM
λ^(2)max, two-photon maximum ([1]; HEPES/EtOH (1/1)): 740 nm
increase of action cross section (φδ) in HEPES/EtOH (1/1) versus HEPES buffer ([1]; HEPES/EtOH (1/1) vs HEPES buffer): 12 fold
Φδmax, two-photon action cross section ([1]; HEPES/EtOH (1/1), GM = 10^−50 cm^4s/photon): 12 GM
Δλmax, shift of absorption spectrum with solvent polarity ([2]; 1,4-dioxane to HEPES buffer): 8 nm
Δλ^FImax, shift of emission spectrum with solvent polarity ([2]; 1,4-dioxane<DMF<EtOH<HEPES/EtOH (1/1)<HEPES buffer): 31 nm
Φ, fluorescence quantum yield ([2]; EtOH): 0.87
λ^(1)max, one-photon absorption maximum ([2]; EtOH): 354 nm
λ^flmax, one-photon emission maximum ([2]; EtOH): 437 nm
10^−4 ε ([2]; EtOH): (4.27) M^−1cm^−1
Φ, fluorescence quantum yield ([2]; HEPES buffer): 0.013
λ^(1)max, one-photon absorption maximum [2, 4]: 360 nm
λ^flmax, one-photon emission maximum [2, 4]: 444 nm
ε at maximum absorption ([2]; HEPES buffer, pH 7.4): 25000 M⁻¹ cm⁻¹
Φ, fluorescence quantum yield ([2]; HEPES/EtOH (1/1)): 0.41
λ^(1)max, one-photon absorption maximum ([2]; HEPES/EtOH (1/1)): 352 nm
λ^flmax, one-photon emission maximum ([2]; HEPES/EtOH (1/1)): 440 nm
10^−4 ε ([2]; HEPES/EtOH (1/1)): (4.11) M^−1cm^−1
10^−4 ε ([2]; HEPES): (2.50) M^−1cm^−1
kobs in labeled HeLa cells (HeLa cells; HeLa cells labeled with 2-6, no additive): 0.0 ± 0.1 s⁻¹
total sulfide concentration ([H2S]+[HS^−]) in HeLa cells (HeLa cells; no additive, probe 2-6): 0.0 ± 0.1 µM
total sulfide concentration in colon tissue (rat colon tissue; mucosa): 7.0 ± 2.7 µM
kobs in colon tissue (rat colon tissue; mucosa): (2.0±0.8)×10^−5 s^−1
total sulfide concentration in colon tissue (rat colon tissue; submucosa): 3.8 ± 1.4 µM
kobs in colon tissue (rat colon tissue; submucosa): (1.1±0.5)×10^−5 s^−1
pH sensitivity [3]: pH-insensitive
